Measurements: patent publication US8101766B2, “Crystalline form of a biphenyl compound” (Theravance, Inc., priority 2004, dated 2012)
pEC50, pKi: −log10 of the molar value.

Key:
cM5 receptor = target: T1, cM5 receptor (Pan troglodytes, UniProt Q5IS53); experiment: Blockade of agonist-mediated calcium release via FLIPR assay (cM5); type: cell-based, chimpanzee; conditions: CHO cells stably expressing cM5
T1 construct: expressed in transfected cells
T1 sequence (Q5IS53 1-532): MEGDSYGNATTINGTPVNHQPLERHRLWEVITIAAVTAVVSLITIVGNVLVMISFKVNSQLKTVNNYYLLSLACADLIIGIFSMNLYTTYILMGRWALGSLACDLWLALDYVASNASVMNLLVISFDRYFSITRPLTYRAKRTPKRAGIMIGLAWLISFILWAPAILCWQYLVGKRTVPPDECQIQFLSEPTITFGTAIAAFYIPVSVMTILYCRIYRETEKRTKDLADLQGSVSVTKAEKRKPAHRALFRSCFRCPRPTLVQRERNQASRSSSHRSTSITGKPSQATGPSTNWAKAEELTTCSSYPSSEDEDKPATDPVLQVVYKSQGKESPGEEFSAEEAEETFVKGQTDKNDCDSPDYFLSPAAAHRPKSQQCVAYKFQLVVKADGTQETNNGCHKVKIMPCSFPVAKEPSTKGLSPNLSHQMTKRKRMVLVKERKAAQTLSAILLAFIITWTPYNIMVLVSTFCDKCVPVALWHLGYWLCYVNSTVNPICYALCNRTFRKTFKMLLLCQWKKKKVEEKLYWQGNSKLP
Text: B. Blockade of Agonist-Mediated Calcium Release Via FLIPR Assays
Muscarinic receptor subtypes (M1, M3 and M5 receptors), which couple to Gq proteins, activate the phospholipase C (PLC) pathway upon agonist binding to the receptor. As a result, activated PLC hydrolyzes phosphatyl inositol diphosphate (PIP2) to diacylglycerol (DAG) and phosphatidyl-1,4,5-triphosphate (IP3), which in turn generates calcium release from intracellular stores, i.e., endoplasmic and sarcoplasmic reticulum. […] This fluorescence event is measured in real time by the FLIPR, which detects the change in fluorescence from a monolayer of cells cloned with human M1 and M3, and chimpanzee M5 receptors. Antagonist potency can be determined by the ability of antagonists to inhibit agonist-mediated increases in intracellular calcium. […]
To determine antagonist potency, the dose-dependent stimulation of intracellular Ca^2+ release for oxotremorine was first determined so that antagonist potency can later be measured against oxotremorine stimulation at an EC90 concentration. […]
The parameters used for the FLIPR were: exposure length of 0.4 seconds, laser strength of 0.5 watts, excitation wavelength of 488 nm, and emission wavelength of 550 nm. Baseline was determined by measuring the change in fluorescence for 10 seconds prior to addition of agonist. […]

β2 adrenergic receptor [1] = target: T2, β2 adrenergic receptor (Homo sapiens, UniProt P07550); experiment: Whole-cell cAMP Flashplate assay in CHO cell lines heterologously expressing human β2 adrenergic receptor; type: cell-based; design: expressed in transfected cells; conditions: CHO-K1 cells expressing cloned human β2
T2 sequence (P07550 whole entry): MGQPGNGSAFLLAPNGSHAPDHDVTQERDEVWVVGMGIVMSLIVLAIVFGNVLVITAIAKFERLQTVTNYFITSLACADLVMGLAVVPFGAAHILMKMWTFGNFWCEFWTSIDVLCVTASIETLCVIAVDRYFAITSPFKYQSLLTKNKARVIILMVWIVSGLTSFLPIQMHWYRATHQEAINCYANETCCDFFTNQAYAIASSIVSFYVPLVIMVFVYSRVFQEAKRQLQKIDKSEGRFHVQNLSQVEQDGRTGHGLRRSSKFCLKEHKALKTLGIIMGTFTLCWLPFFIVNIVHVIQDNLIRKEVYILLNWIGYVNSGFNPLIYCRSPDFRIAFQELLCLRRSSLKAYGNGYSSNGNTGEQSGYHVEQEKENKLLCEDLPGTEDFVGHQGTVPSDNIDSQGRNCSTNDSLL
Procedure: Cells were rinsed with PBS and detached in dPBS (Dulbecco's Phosphate Buffered Saline, without CaCl2 and MgCl2) containing 2 mM EDTA or Trypsin-EDTA solution (0.05% trypsin/0.53 mM EDTA). […] Test compounds (10 mM in DMSO) were diluted into PBS containing 0.1% BSA in Beckman Biomek-2000 and tested at 11 different concentrations ranging from 100 μM to 1 pM. […] Data were analyzed by nonlinear regression analysis with the GraphPad Prism Software package (GraphPad Software, Inc., San Diego, Calif.) with the sigmoidal equation.

β2 adrenergic receptor [2] = target: T2, β2 adrenergic receptor; experiment: Whole-cell cAMP Flashplate assay with lung epithelial cell line (BEAS-2B) endogenously expressing human β2 adrenergic receptor; type: cell-based; design: a cell line expressing endogenous levels of the β2 adrenergic receptor, a human lung epithelial cell line (BEAS-2B) was used; host or cells: BEAS-2B human lung epithelial cells; conditions: BEAS-2B human lung epithelial cell line, endogenous receptor
Procedure: On the day of the assay, cells were rinsed with PBS, lifted by scraping with 5 mM EDTA in PBS, and counted. Cells were pelleted by centrifugation at 1,000 rpm and re-suspended in stimulation buffer pre-warmed to 37° C. at a final concentration of 600,000 cells/mL. Cells were used at a final concentration of 100,000 to 120,000 cells/well in this assay. […] Test compounds were tested in the assay at 11 different concentrations, ranging from 10 μM to 10 pM. Reactions were incubated for 10 min at 37° C. and stopped by addition of 100 μL of ice-cold detection buffer. Plates were sealed, incubated over night at 4° C. and counted the next morning in a Topcount scintillation counter (Packard BioScience Co., Meriden, Conn.). […] Data were analyzed by nonlinear regression analysis with the GraphPad Prism Software package (GraphPad Software, Inc., San Diego, Calif.) using the 4-parameter model for sigmoidal dose-response.

COc1cc(NC(=O)CCN2CCC(OC(=O)Nc3ccccc3-c3ccccc3)CC2)c(Cl)cc1CNC[C@H](O)c1ccc(O)c2[nH]c(=O)ccc12 [compound of formula I, biphenyl-2-ylcarbamic acid 1-[2-(2-chloro-4-{[(R)-2-hydroxy-2-(8-hydroxy-2-oxo-1,2-dihydroquinolin-5-yl)ethylamino]methyl}-5-methoxyphenylcarbamoyl)ethyl]piperidin-4-yl ester]
> 8.00: pKi (cM5 receptor) | pEC50 (β2 adrenergic receptor [1]) | pEC50 (β2 adrenergic receptor [2])
